Results as given in article PMC6713262 (Cell, 2019).
Like-named read-outs stand apart in the source and are kept apart here.

Target: crystallized CB2 construct (CB2-T4L) (Homo sapiens, UniProt P34972, D228Y/G225M/G233N/G304E/G78L/H226L/INS221[…]/INS227[…]/INS235[…]/M234R/R229N/R242E/S224R/T127A/T153L/V231T)
Test: Radioligand competition binding with [3H]-CP55,940, crystallized CB2 construct

`Cc1c(C(=O)NC23CC4CC(CC(C4)C2)C3)nn(CCCCCO)c1-c1ccccc1` [AM10257, 1-(5-Hydroxypentyl)-4-methyl-5-phenyl-N-tricyclo[3.3.1.1^3,7]dec-1-yl-1H-pyrazole-3-carboxamide] was tested. Which “Effect of construct modifications on binding affinity of CB2” value (T4L fusion, five mutations, N/C-terminal truncation, Figure S1F) did it give?
Its value is “little effect”.

For SR144528 [reference compound], which “Effect of construct modifications on binding affinity of CB2” value is on record?
Its value is “little effect”.
